Reference: paper PMC12058161, “The plant matrix of Artemisia annua L. for the treatment of malaria: Pharmacodynamic and pharmacokinetic studies” (PLOS One, 2025)
Several values for one entry are separate records, joined by “and”; a condition that tells them apart may be missing. Equal values may be shown once.

Tests used:
in vivo = conditions: male, Sprague Dawley, rat, po, 352 mg/kg
[1] = Stability of the five compounds in SD rat plasma (QC samples, UHPLC-ESI-MS/MS); format: in vitro ADME; conditions: for stability, Accuracy (measured versus nominal concentration) / stability, mean ± SD (measured concentration): SD rat plasma, n=5
Protocol: The method was validated according to the US Food and Drug Administration (FDA) Bioanalytical Method Validation Guidance as follows: [1] specificity was assessed by analyzing blank plasma, blank plasma spiked with standard solutions and rat plasma samples after oral administration. Each calibration curve was plotted using the concentration of the standard solution as the horizontal coordinate and the ratio of analyte to internal standard peak area as the vertical coordinate. The lower limit of quantification (LLOQ) refers to the lowest concentration, which is typically 10 times the signal-to-noise ratio. It has an acceptable accuracy of ± 20% and a precision of less than 20% [3]. Quality Control (QC) samples (low, medium and high concentrations) were prepared for each analyte. Five samples were analyzed at each concentration level and three consecutive batches were determined to calculate the accuracy and precision of the method. Extraction recovery was assessed by the ratio of the average peak area of routinely prepared QC samples (low, medium, and high concentrations) to the post-extraction plasma sample. Likewise, matrix effect was assessed by the ratio of peak areas between post-extraction samples spiked with analytes and mobile phases spiked with the same concentration of analytes.

[2] = male, Sprague Dawley, rat, in vivo, po, 352 mg/kg
[3] = nominal 20 ng/mL, 3 freeze-thaw cycles
[4] = nominal 20 ng/mL, 7 days at -80°C
[5] = nominal 20 ng/mL, Room temperature 24h
[6] = nominal 1000 ng/mL, 3 freeze-thaw cycles
[7] = nominal 1000 ng/mL, 7 days at -80°C
[8] = nominal 1000 ng/mL, Room temperature 24h
[9] = nominal 5000 ng/mL, 3 freeze-thaw cycles
[10] = nominal 5000 ng/mL, 7 days at -80°C
[11] = nominal 5000 ng/mL, Room temperature 24h

C=C1CC[C@@H]2[C@H]3[C@@H](CC[C@H]2C)[C@@H](C)C(=O)O[C@H]13 [ARTI, Arteannuin I]
AUC(0-inf) (in vivo): 1390 ± 586 ng·h/mL | AUC(0-t) (in vivo): 990 ± 284 ng·h/mL | Cmax (in vivo; Cmax): 222 ± 46.4 ng/mL | MRT last (in vivo; MRT(0-t)): 4.34 ± 0.957 h | half-life (in vivo; t1/2): 5.14 ± 1.8 h | Stability in plasma, measured concentration (mean ± SD) ([1]; 3 freeze-thaw cycles, QC concentration 20 ng/mL): 21.0 ± 1.74 ng/mL and 21.0437 ng/mL | Stability in plasma, measured concentration (mean ± SD) ([1]; 3 freeze-thaw cycles, QC concentration 1000 ng/mL): 942 ± 21.5 ng/mL and 941.9 ng/mL | Stability in plasma, measured concentration (mean ± SD) ([1]; 3 freeze-thaw cycles, QC concentration 5000 ng/mL): 4532 ± 63.0 ng/mL and 4531.84 ng/mL | Stability in plasma, measured concentration (mean ± SD) ([1]; 7 days at -80°C, QC concentration 20 ng/mL): 20.6 ± 1.03 ng/mL and 20.6026 ng/mL | Stability in plasma, measured concentration (mean ± SD) ([1]; 7 days at -80°C, QC concentration 1000 ng/mL): 920 ± 31.6 ng/mL and 920.324 ng/mL | Stability in plasma, measured concentration (mean ± SD) ([1]; 7 days at -80°C, QC concentration 5000 ng/mL): 4563 ± 143 ng/mL and 4562.63 ng/mL | Stability, measured concentration, mean ± SD ([1]; QC sample 20 ng/mL, 3 freeze-thaw cycles): 21.0 ± 1.74 ng/mL | Stability, measured concentration, mean ± SD ([1]; QC sample 20 ng/mL, 7 days at -80°C): 20.6 ± 1.03 ng/mL | Stability, measured concentration, mean ± SD ([1]; QC sample 20 ng/mL, Room temperature 24h): 21.1 ± 0.78 ng/mL | Stability, measured concentration, mean ± SD ([1]; QC sample 1000 ng/mL, 3 freeze-thaw cycles): 942 ± 21.5 ng/mL | Stability, measured concentration, mean ± SD ([1]; QC sample 1000 ng/mL, 7 days at -80°C): 920 ± 31.6 ng/mL | Stability, measured concentration, mean ± SD ([1]; QC sample 1000 ng/mL, Room temperature 24h): 1003 ± 39.5 ng/mL | Stability, measured concentration, mean ± SD ([1]; QC sample 5000 ng/mL, 3 freeze-thaw cycles): 4532 ± 63.0 ng/mL | Stability, measured concentration, mean ± SD ([1]; QC sample 5000 ng/mL, 7 days at -80°C): 4563 ± 143 ng/mL | Stability, measured concentration, mean ± SD ([1]; QC sample 5000 ng/mL, Room temperature 24h): 4765 ± 218 ng/mL | Stability in plasma, measured concentration (mean ± SD) ([1]; Room temperature 24h, QC concentration 20 ng/mL): 21.1 ± 0.78 ng/mL and 21.1244 ng/mL | Stability in plasma, measured concentration (mean ± SD) ([1]; Room temperature 24h, QC concentration 1000 ng/mL): 1002.91 ng/mL and 1003 ± 39.5 ng/mL | Stability in plasma, measured concentration (mean ± SD) ([1]; Room temperature 24h, QC concentration 5000 ng/mL): 4764.7 ng/mL and 4765 ± 218 ng/mL | stability, Accuracy (measured versus nominal concentration) [1, 3]: 105.22% | stability, mean ± SD (measured concentration) [1, 3]: 21.0 ± 1.74 ng/mL | stability, Accuracy (measured versus nominal concentration) [1, 4]: 103.01% | stability, mean ± SD (measured concentration) [1, 4]: 20.6 ± 1.03 ng/mL | stability, Accuracy (measured versus nominal concentration) [1, 5]: 105.62% | stability, mean ± SD (measured concentration) [1, 5]: 21.1 ± 0.78 ng/mL | stability, Accuracy (measured versus nominal concentration) [1, 6]: 94.19% | stability, mean ± SD (measured concentration) [1, 6]: 942 ± 21.5 ng/mL | stability, Accuracy (measured versus nominal concentration) [1, 7]: 92.03% | stability, mean ± SD (measured concentration) [1, 7]: 920 ± 31.6 ng/mL | stability, Accuracy (measured versus nominal concentration) [1, 8]: 100.29% | stability, mean ± SD (measured concentration) [1, 8]: 1003 ± 39.5 ng/mL | stability, Accuracy (measured versus nominal concentration) [1, 9]: 90.64% | stability, mean ± SD (measured concentration) [1, 9]: 4532 ± 63.0 ng/mL | stability, Accuracy (measured versus nominal concentration) [1, 10]: 91.25% | stability, mean ± SD (measured concentration) [1, 10]: 4563 ± 143 ng/mL | stability, Accuracy (measured versus nominal concentration) [1, 11]: 95.29% | stability, mean ± SD (measured concentration) [1, 11]: 4765 ± 218 ng/mL | CL [2]: 0.016 ± 0.006 L/h | Vz [2]: 0.114 ± 0.041 L
